Laboratory results taken from ChEMBL document CHEMBL4376813, “Design, synthesis and biological evaluation of AT1 receptor blockers derived from 6-substituted aminocarbonyl benzimidazoles” (Eur J Med Chem, 2019).
Active and inactive are the calls of the source. No cut-off for these calls is given here.

Experiments:
[1] = Inhibition of [125I] Ang2 binding to AT1 receptor in Sprague-Dawley rat VSMC after 150 mins by gamma-counter method
Rattus norvegicus [2] = assay: […] activity in spontaneous hypertensive rat assessed as reduction in blood pressure at 10 mg/kg, po; assay type: functional, organism-based
Rattus norvegicus [3] = assay: […] activity in spontaneous hypertensive rat assessed as reduction in blood pressure at 5 to 10 mg/kg, po; assay type: functional, organism-based
Rattus norvegicus [4] = assay: […] activity in spontaneous hypertensive rat assessed as maximum reducing response of mean blood pressure at 10 mg/kg, po; assay type: functional
Rattus norvegicus [5] = assay: […] activity in spontaneous hypertensive rat at 10 mg/kg, po after 24 hrs; assay type: functional, organism-based

Row | IC50 [1] [nM] | Ki [1] [nM] | Compound | Activity (Rattus norvegicus [2]) | Activity (Rattus norvegicus [3]) | Activity (Rattus norvegicus [4]) [mmHg] | Activity (Rattus norvegicus [5])
1 | 8.5 | 6.2 | CCCCc1nc2c(C)cc(C(=O)NCCc3ccccc3)cc2n1Cc1cccc2c1ccn2-c1ccccc1C(=O)O | – | – | – | –
2 | 14.6 | 10.5 | CCCCc1nc(Cl)c(CO)n1Cc1ccc(-c2ccccc2-c2nnn[nH]2)cc1 [LOSARTAN] | Active | – | – | –
3 | 2.3 | 1.7 | CCCc1nc2c(C)cc(C(=O)NCCc3ccccc3)cc2n1Cc1cccc2c1ccn2-c1ccccc1C(=O)O | – | Active | 57.6 | Active
4 | 3.7 | 2.7 | CCCCc1nc2c(C)cc(C(=O)NCCc3ccccc3)cc2n1Cc1ccc2c(ccn2-c2ccccc2C(=O)O)c1 | – | Active | – | –
5 | 2.6 | 1.9 | CCCc1nc2c(C)cc(C(=O)NCCc3ccccc3)cc2n1Cc1ccc2c(ccn2-c2ccccc2C(=O)O)c1 | – | Active | 57.9 | Active
6 | 4.8 | 3.5 | CCc1nc2c(C)cc(C(=O)NCCc3ccccc3)cc2n1Cc1cccc2c1ccn2-c1ccccc1C(=O)O | – | – | – | –
7 | 12.1 | 8.8 | CCc1nc2c(C)cc(C(=O)NCCc3ccccc3)cc2n1Cc1ccc2c(ccn2-c2ccccc2C(=O)O)c1 | – | – | – | –
